In patent publication US8614201B2 (Janssen Pharmaceutica NV, priority 2009, dated 2013):

Biological target: Human TRPA1 (Homo sapiens, UniProt O75762)
Experiment: Assay 1: In vitro cellular testing of TRPA1 modulation (CHO-TREx, Fluo-3 calcium fluorescence, AITC agonist)
Format: cell-based
Set-up: expressed in transfected cells; host or cells: CHO-TREx cells (Invitrogen), vector pcDNA4/TO
Conditions: CHO-TREx cells expressing human TRPA1; Fluo-3 fluorescence (FLIPR/Tetra); agonist 15 μM allyl isothiocyanate (AITC); 30 minute antagonist incubation
Procedure: Assay 1: In Vitro Cellular Testing of TRPA1 Modulation
Human TRPA1 (NCBI accession number NM_007332.1) was cloned into pcDNA4/TO. CHO-TREx cells (Invitrogen, Carlsbad, Calif.) were stably transfected with pcDNA4/TO-TRPA1 using lipofection to generate a clonal cell line that expressed human TRPA1 in a tetracycline-inducible manner. Culture medium used was Ham's F-12 supplemented with 10% fetal bovine serum, 2 mM L-glutamine, 5 μg/ml blasticidin and 200 μg/ml zeocin. Cells were seeded in black-walled clear-bottom 96-well plates at a density of 50,000 cells per well and cultured overnight at 37° C. with 5% CO2 in culture medium supplemented with 1 μg/ml tetracycline. On the day of the experiment, cells were washed 3 times with HEPES buffered saline (in mM: NaCl 137, MgCl2 0.5, KCl 2, dextrose 5, CaCl2 2 and HEPES 10; pH 7.4). Cells were then loaded with calcium-sensitive fluorescent dye by incubation in the presence of 4 μM Fluo-3 AM (TefLabs, Austin, Tex.) at room temperature in the dark for 60 minutes. After incubation with dye, cells were washed in assay buffer and, if appropriate, antagonists were added at this time. Following a further 30 minute incubation, cells were assayed using a Fluorometric Imaging Plate Reader (FLIPR™) or a Tetra (both manufactured by Molecular Devices, CA) to simultaneously monitor Fluo-3 fluorescence in all wells (λexcitation=488 nm, λemission=540 nm). Changes in fluorescence were monitored for 3 minutes after the addition of 15 μM allyl isothiocyanate (AITC) as an agonist. Concentration-dependence of receptor blocking was determined by exposing each well of cells in duplicate rows of a 96-well plate to a serial dilution of test compound. The concentration series usually started at 10 μM with a three-fold serial decrement in concentration. The magnitude of the response to agonist challenge was determined by measuring the fluorescence before and 3 minutes after the addition of the agonist. The degree of blocking was determined by comparing the response to that of negative (no added antagonist) and positive (10 μM ruthenium red) control wells. Data were analyzed using a non-linear regression program (Origin; OriginLab, MA) to fit the concentration-response data to a Hill function. Antagonist potencies were determined as the concentration required to produce 50% reduction in the response as compared to the negative and positive controls.

Sequence of Human TRPA1 (O75762 whole entry): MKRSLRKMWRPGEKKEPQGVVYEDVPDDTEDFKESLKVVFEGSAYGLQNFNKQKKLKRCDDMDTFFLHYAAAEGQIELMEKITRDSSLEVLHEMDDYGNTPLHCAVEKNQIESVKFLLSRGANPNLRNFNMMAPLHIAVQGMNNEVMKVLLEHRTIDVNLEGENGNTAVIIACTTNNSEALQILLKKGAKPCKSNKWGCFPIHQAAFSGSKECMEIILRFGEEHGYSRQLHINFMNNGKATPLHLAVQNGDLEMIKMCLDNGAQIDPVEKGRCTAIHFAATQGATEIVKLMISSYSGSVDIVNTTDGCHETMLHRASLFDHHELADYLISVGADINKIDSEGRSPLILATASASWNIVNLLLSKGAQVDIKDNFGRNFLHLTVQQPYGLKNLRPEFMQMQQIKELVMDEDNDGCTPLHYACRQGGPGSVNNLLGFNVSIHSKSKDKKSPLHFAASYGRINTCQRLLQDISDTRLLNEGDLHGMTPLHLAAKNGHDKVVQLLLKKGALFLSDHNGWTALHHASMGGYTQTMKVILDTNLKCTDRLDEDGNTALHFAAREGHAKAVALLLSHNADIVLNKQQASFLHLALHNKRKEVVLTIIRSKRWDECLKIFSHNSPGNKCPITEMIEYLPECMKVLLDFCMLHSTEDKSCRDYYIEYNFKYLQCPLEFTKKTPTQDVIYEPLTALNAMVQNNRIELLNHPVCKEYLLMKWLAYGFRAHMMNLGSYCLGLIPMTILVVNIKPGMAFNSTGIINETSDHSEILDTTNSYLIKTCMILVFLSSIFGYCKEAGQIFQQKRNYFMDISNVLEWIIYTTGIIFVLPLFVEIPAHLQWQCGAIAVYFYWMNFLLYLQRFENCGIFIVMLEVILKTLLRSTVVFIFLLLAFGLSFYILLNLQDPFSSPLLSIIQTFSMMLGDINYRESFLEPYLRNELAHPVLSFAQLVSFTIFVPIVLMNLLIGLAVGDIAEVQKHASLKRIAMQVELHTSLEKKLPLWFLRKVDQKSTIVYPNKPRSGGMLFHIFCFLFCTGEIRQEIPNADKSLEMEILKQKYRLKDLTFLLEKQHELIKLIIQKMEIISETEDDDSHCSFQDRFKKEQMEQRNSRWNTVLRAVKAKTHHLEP

| IC50 | SMILES |
| --- | --- |
| 602 nM | CC(NC(=O)[C@@H]1CCCN1S(=O)(=O)c1ccc(F)cc1)c1cc(-c2ccc(C(F)(F)F)cc2)ncn1 (single isomer, unassigned) [Example 181, (1S*,2S)-1-(4-Fluoro-benzenesulfonyl)-pyrrolidine-2-carboxylic acid {1-[6-(4-trifluoromethyl-phenyl)-pyrimidin-4-yl]-ethyl}-amide] |
| 923 nM | CC(NC(=O)[C@@H]1CCCN1S(=O)(=O)c1ccc(F)cc1)c1cc(-c2ccc(C(F)(F)F)cc2)ncn1 (single isomer, unassigned) [Example 182, (1R*,2S)-1-(4-Fluoro-benzenesulfonyl)-pyrrolidine-2-carboxylic acid {1-[6-(4-trifluoromethyl-phenyl)-pyrimidin-4-yl]-ethyl}-amide] |
| 36 nM | CC(C)CN1CCN(c2nc(CNC(=O)[C@@H]3CCCN3S(=O)(=O)c3ccc(F)cc3)cc(-c3ccc(C(F)(F)F)cc3)n2)CC1 [Example 1, 1-(4-Fluoro-benzenesulfonyl)-pyrrolidine-2S-carboxylic acid [2-(4-isobutyl-piperazin-1-yl)-6-(4-trifluoromethyl-phenyl)-pyrimidin-4-ylmethyl]-amide] |
| 40 nM | COc1nc(CNC(=O)[C@@H]2CCCN2S(=O)(=O)c2ccc(F)cc2)cc(-c2ccc(C(F)(F)F)cc2)n1 [Example 2, 1-(4-Fluoro-benzenesulfonyl)-pyrrolidine-2S-carboxylic acid [2-methoxy-6-(4-trifluoromethyl-phenyl)-pyrimidin-4-ylmethyl]-amide] |
| 108 nM | O=C(NCc1cc(-c2ccc(C(F)(F)F)cc2)nc(-c2cccnc2)n1)[C@@H]1CCCN1S(=O)(=O)c1ccc(F)cc1 [Example 3, 1-(4-Fluoro-benzenesulfonyl)-pyrrolidine-2S-carboxylic acid [2-pyridin-3-yl-6-(4-trifluoromethyl-phenyl)-pyrimidin-4-ylmethyl]-amide] |
| 3 nM | O=C(NCc1cc(-c2ccc(C(F)(F)F)cc2)nc(-c2ccc(C(F)(F)F)cc2)n1)[C@@H]1CCCN1S(=O)(=O)c1ccc(F)cc1 [Example 4, 1-(4-Fluoro-benzenesulfonyl)-pyrrolidine-2S-carboxylic acid [2,6-bis-(4-trifluoromethyl-phenyl)-pyrimidin-4-ylmethyl]-amide] |
| 9 nM | O=C(NCc1cc(-c2ccc(C(F)(F)F)cc2)nc(-c2cccc(C(F)(F)F)c2)n1)[C@@H]1CCCN1S(=O)(=O)c1ccc(F)cc1 [Example 5, 1-(4-Fluoro-benzenesulfonyl)-pyrrolidine-2S-carboxylic acid [2-(3-trifluoromethyl-phenyl)-6-(4-trifluoromethyl-phenyl)-pyrimidin-4-ylmethyl]-amide] |
| 11 nM | O=C(NCc1cc(-c2ccc(C(F)(F)F)cc2)nc(-c2ccccc2C(F)(F)F)n1)[C@@H]1CCCN1S(=O)(=O)c1ccc(F)cc1 [Example 6, 1-(4-Fluoro-benzenesulfonyl)-pyrrolidine-2S-carboxylic acid [2-(2-trifluoromethyl-phenyl)-6-(4-trifluoromethyl-phenyl)-pyrimidin-4-ylmethyl]-amide] |
| 229 nM | O=C(NCc1cc(-c2ccc(C(F)(F)F)cc2)nc(-c2ccncc2)n1)[C@@H]1CCCN1S(=O)(=O)c1ccc(F)cc1 [Example 7, 1-(4-Fluoro-benzenesulfonyl)-pyrrolidine-2S-carboxylic acid [2-pyridin-4-yl-6-(4-trifluoromethyl-phenyl)-pyrimidin-4-ylmethyl]-amide] |
| 475 nM | Nc1nc(CNC(=O)[C@@H]2CCCN2S(=O)(=O)c2ccc(F)cc2)cc(-c2ccc(C(F)(F)F)cc2)n1 [Example 8, 1-(4-Fluoro-benzenesulfonyl)-pyrrolidine-2S-carboxylic acid [2-amino-6-(4-trifluoromethyl-phenyl)-pyrimidin-4-ylmethyl]-amide] |
| 542 nM | CC(C)N1CCN(c2nc(CNC(=O)[C@@H]3CCCN3S(=O)(=O)c3ccc(F)cc3)cc(-c3ccc(C(F)(F)F)cc3)n2)CC1 [Example 9, 1-(4-Fluoro-benzenesulfonyl)-pyrrolidine-2S-carboxylic acid [2-(4-isopropyl-piperazin-1-yl)-6-(4-trifluoromethyl-phenyl)-pyrimidin-4-ylmethyl]-amide] |
| 30 nM | CN(C)c1nc(CNC(=O)[C@@H]2CCCN2S(=O)(=O)c2ccc(F)cc2)cc(-c2ccc(C(F)(F)F)cc2)n1 [Example 10, 1-(4-Fluoro-benzenesulfonyl)-pyrrolidine-2S-carboxylic acid [2-dimethylamino-6-(4-trifluoromethyl-phenyl)-pyrimidin-4-ylmethyl]-amide] |
| 65 nM | O=C(NCc1cc(-c2ccc(C(F)(F)F)cc2)ncn1)[C@@H]1CCCN1S(=O)(=O)c1ccc(F)cc1 [Example 11, 1-(4-Fluoro-benzenesulfonyl)-pyrrolidine-2S-carboxylic acid [6-(4-trifluoromethyl-phenyl)-pyrimidin-4-ylmethyl]-amide] |
| 1090 nM | CN1CCC(CNc2nc(CNC(=O)[C@@H]3CCCN3S(=O)(=O)c3ccc(F)cc3)cc(-c3ccc(C(F)(F)F)cc3)n2)C1 (stereo partly drawn) [Example 12, 1-(4-Fluoro-benzenesulfonyl)-pyrrolidine-2S-carboxylic acid [2-[(1-methyl-pyrrolidin-3-ylmethyl)-amino]-6-(4-trifluoromethyl-phenyl)-pyrimidin-4-ylmethyl]-amide] |
| 90 nM | CCC(CC)N1CCN(c2nc(CNC(=O)[C@@H]3CCCN3S(=O)(=O)c3ccc(F)cc3)cc(-c3ccc(C(F)(F)F)cc3)n2)CC1 [Example 13, 1-(4-Fluoro-benzenesulfonyl)-pyrrolidine-2S-carboxylic acid [2-[4-(1-ethyl-propyl)-piperazin-1-yl]-6-(4-trifluoromethyl-phenyl)-pyrimidin-4-ylmethyl]-amide] |
| 21 nM | CNc1nc(CNC(=O)[C@@H]2CCCN2S(=O)(=O)c2ccc(F)cc2)cc(-c2ccc(C(F)(F)F)cc2)n1 [Example 14, 1-(4-Fluoro-benzenesulfonyl)-pyrrolidine-2S-carboxylic acid [2-methylamino-6-(4-trifluoromethyl-phenyl)-pyrimidin-4-ylmethyl]-amide] |
| 418 nM | CCN1CCN(c2nc(CNC(=O)[C@@H]3CCCN3S(=O)(=O)c3ccc(F)cc3)cc(-c3ccc(C(F)(F)F)cc3)n2)CC1 [Example 15, 1-(4-Fluoro-benzenesulfonyl)-pyrrolidine-2S-carboxylic acid [2-(4-ethyl-piperain-1-yl)-6-(4-trifluoromethyl-phenyl)-pyrimidin-4-ylmethyl]-amide] |
| 34 nM | CC(Nc1nc(CNC(=O)[C@@H]2CCCN2S(=O)(=O)c2ccc(F)cc2)cc(-c2ccc(C(F)(F)F)cc2)n1)c1ccccn1 (stereo partly drawn) [Example 16, 1-(4-Fluoro-benzenesulfonyl)-pyrrolidine-2S-carboxylic acid [2-(1-pyridin-2-yl-ethylamino)-6-(4-trifluoromethyl-phenyl)-pyrimidin-4-ylmethyl]-amide] |
| 2080 nM | CN(C)CCN1CCN(c2nc(CNC(=O)[C@@H]3CCCN3S(=O)(=O)c3ccc(F)cc3)cc(-c3ccc(C(F)(F)F)cc3)n2)CC1 [Example 17, 1-(4-Fluoro-benzenesulfonyl)-pyrrolidine-2S-carboxylic acid [2-[4-(2-dimethylamino-ethyl)-piperazin-1-yl]-6-(4-trifluoromethyl-phenyl)-pyrimidin-4-ylmethyl]-amide] |
| 1850 nM | CN(C)CCN(C)c1nc(CNC(=O)[C@@H]2CCCN2S(=O)(=O)c2ccc(F)cc2)cc(-c2ccc(C(F)(F)F)cc2)n1 [Example 18, 1-(4-Fluoro-benzenesulfonyl)-pyrrolidine-2S-carboxylic acid [2-[(2-dimethylamino-ethyl)-methyl-amino]-6-(4-trifluoromethyl-phenyl)-pyrimidin-4-ylmethyl]-amide] |
| 16 nM | O=C(NCc1cc(-c2ccc(C(F)(F)F)cc2)nc(N2CCN(Cc3cccnc3)CC2)n1)[C@@H]1CCCN1S(=O)(=O)c1ccc(F)cc1 [Example 19, 1-(4-Fluoro-benzenesulfonyl)-pyrrolidine-2S-carboxylic acid [2-(4-pyridin-3-ylmethyl-piperazin-1-yl)-6-(4-trifluoromethyl-phenyl)-pyrimidin-4-ylmethyl]-amide] |
| 2050 nM | CN1CCC(CN2CCN(c3nc(CNC(=O)[C@@H]4CCCN4S(=O)(=O)c4ccc(F)cc4)cc(-c4ccc(C(F)(F)F)cc4)n3)CC2)CC1 [Example 20, 1-(4-Fluoro-benzenesulfonyl)-pyrrolidine-2S-carboxylic acid [2-[4-(1-methyl-piperidin-4-ylmethyl)-piperazin-1-yl]-6-(4-trifluoromethyl-phenyl)-pyrimidin-4-ylmethyl]-amide] |
